PMC8385535 (Frontiers in Pharmacology, 2021)

Target: T1, IGPD (imidazole glycerol phosphate dehydratase) (Staphylococcus xylosus, UniProt A0A5R9B0J7)
T1 construct: gene hisB; recombinant, pET30a-hisB, E. coli host; His tag implied (coupled to Octet NTA sensor)
T1 sequence (A0A5R9B0J7 1-192): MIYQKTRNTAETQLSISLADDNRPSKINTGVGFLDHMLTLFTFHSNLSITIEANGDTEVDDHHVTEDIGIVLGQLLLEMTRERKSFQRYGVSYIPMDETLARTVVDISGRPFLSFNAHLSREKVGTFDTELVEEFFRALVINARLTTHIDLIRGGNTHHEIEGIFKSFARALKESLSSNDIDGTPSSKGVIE
Test: bio-layer interferometry (Octet, IGPD on NTA tip)
Format: binding

Compound: C[C@@H]1O[C@@H](OC[C@H]2O[C@@H](Oc3c(-c4ccc(O)c(O)c4)oc4cc(O)cc(O)c4c3=O)[C@H](O)[C@@H](O)[C@@H]2O)[C@H](O)[C@H](O)[C@H]1O [rutin]
- Kd: 1 mM
